Six compounds from ChEMBL document CHEMBL4265965, “Dichloroacetophenones targeting at pyruvate dehydrogenase kinase 1 with improved selectivity and antiproliferative activity: Synthesis and structure-activity relationships” (Bioorg Med Chem Lett, 2018) can be followed below.

The subject of experiment [1] is NCI-H1975. The experiment can be described thus: Antiproliferative activity against human NCI-H1975 cells assessed as inhibition of cell proliferation at 6 uM after 72 hrs by MTT assay relative to control. The class given is functional. The note with it: NCI-H1975, 72 h.
The test system of experiment [2] is A549. The experiment can be described thus: Antiproliferative activity against human A549 cells assessed as inhibition of cell proliferation at 2 uM after 72 hrs by MTT assay relative to control. The format is functional. The note with it: for inhibition at 2 µM: A549, 72 h.
In experiment [3] the test system is A549. The experiment can be described thus: Antiproliferative activity against human A549 cells assessed as inhibition of cell proliferation at 6 uM after 72 hrs by MTT assay relative to control. Conditions: A549, 72 h. The format is functional. On the technique in general: Tetrazolium assays rely on reduction of a dye to a coloured formazan, in cell work by metabolically active cells.

Experiment [4] has as its system NCI-H1650. Put plainly: Antiproliferative activity against human NCI-H1650 cells assessed as inhibition of cell proliferation at 2 uM after 72 hrs by MTT assay relative to control. The note with it: for inhibition at 2 µM: NCI-H1650, 72 h. The format is functional.
The subject of experiment [5] is A549. The experiment can be described thus: Antiproliferative activity against human A549 cells assessed as inhibition of cell proliferation at 12 uM after 72 hrs by MTT assay relative to control. The format is functional. Conditions: A549, 72 h.
In experiment [6] the test system is NCI-H1975. The experiment can be described thus: Antiproliferative activity against human NCI-H1975 cells assessed as inhibition of cell proliferation at 2 uM after 72 hrs by MTT assay relative to control. Conditions: for inhibition at 2 µM: NCI-H1975, 72 h. The format is functional.
The subject of experiment [7] is NCI-H1650. The experiment can be described thus: Antiproliferative activity against human NCI-H1650 cells assessed as inhibition of cell proliferation at 12 uM after 72 hrs by MTT assay relative to control. The class given is functional. Conditions: NCI-H1650, 72 h.
In experiment [8] the target is T1, [Pyruvate dehydrogenase (acetyl-transferring)] kinase isozyme 1, mitochondrial (Homo sapiens, UniProt Q15118). The experiment can be described thus: Inhibition of PDK1 in human NCI-H1975 cells assessed as reduction in pyruvate dehydrogenase phosphorylation at 10 uM after 24 hrs by Western blot analysis. The class given is cell-based.
Experiment [9] deals with NCI-H1975. The experiment can be described thus: Antiproliferative activity against human NCI-H1975 cells assessed as inhibition of cell proliferation after 72 hrs by MTT assay. The format is functional, cell-based. The note with it: NCI-H1975, 72 h.
The target of experiment [10] is T1, [Pyruvate dehydrogenase (acetyl-transferring)] kinase isozyme 1, mitochondrial. Put plainly: Inhibition of recombinant human N-terminal His6/Sumo-tagged PDK1 (29 to 436 residues) expressed in Escherichia coli BL21 at 1 uM by kinase-glo luminescence assay relative to control.
Experiment [11] concerns NCI-H1650. Put plainly: Antiproliferative activity against human NCI-H1650 cells assessed as inhibition of cell proliferation at 6 uM after 72 hrs by MTT assay relative to control. The format is functional. Conditions: NCI-H1650, 72 h.
Experiment [12] deals with NCI-H1975. The experiment can be described thus: Antiproliferative activity against human NCI-H1975 cells assessed as inhibition of cell proliferation at 12 uM after 72 hrs by MTT assay relative to control. The class given is functional. Conditions: NCI-H1975, 72 h.
The species named for another experiment is Sus scrofa. The experiment can be described thus: Inhibition of porcine PDK1 assessed as activation of pyruvate dehydrogenase complex at 1 uM measured after 3 mins.

Molecules are shown by their SMILES. Calls of active or inactive are those of the source. The calls are words filed in the database; no cut-off is given here.

A word on the inhibition: it is the percentage by which the read-out fell short of the control. The IC50 is the concentration at which inhibition is half-maximal.

In the case of `COc1ccc(C(=O)C(Cl)Cl)cc1Cl`, the inhibition at 6 µM in the experiment with NCI-H1975 [1] is 95.8%; in the experiment with A549 [3], 56.7%; in the experiment on NCI-H1650 [11] it was 78.5%. For the same compound, the inhibition at 2 µM in the experiment on A549 [2] came to 17%; in the experiment with NCI-H1650 [4], 36.5%; with NCI-H1975 [6] it was 51.7%. Moreover, the inhibition at 12 µM in the experiment with A549 [5] amounted to 88.4%; in the experiment on NCI-H1650 [7], 98.7%; with NCI-H1975 [12], 99.4%. For the same compound, the inhibition entry in experiment [8] is “Active”. Besides, in the experiment with NCI-H1975 [9], the IC50 was 2000 nM. Besides, the inhibition in [10] is 47.1%.
In the case of `CCCCOc1ccc(C(=O)C(Cl)Cl)cc1`, the inhibition at 6 µM with NCI-H1975 [1] amounted to 92%; with A549 [3] it was 46.6%; in the experiment with NCI-H1650 [11], 70.7%. Besides, the values for the inhibition at 2 µM in the experiment on A549 [2], in the experiment on NCI-H1650 [4] and in the experiment on NCI-H1975 [6] were 20.9%, 30.7% and 46.5%, respectively. Besides, the figures for the inhibition at 12 µM with A549 [5], with NCI-H1650 [7] and in the experiment on NCI-H1975 [12] were 67%, 97.6% and 97.4%, respectively. Also, the inhibition entry in experiment [8] is “Active”. Besides, the inhibition in experiment [10] is 19.7 to 67.9%.
Take `CC(C)c1ccc(C(=O)C(Cl)Cl)cc1`: the figures for the inhibition at 6 µM with NCI-H1975 [1], in the experiment with A549 [3] and in the experiment with NCI-H1650 [11] were 96.1%, 65.8% and 65.3%, respectively. Moreover, the inhibition at 2 µM stood at 24.4% with A549 [2], 26.6% in the experiment with NCI-H1650 [4] and 60.1% in the experiment with NCI-H1975 [6]. Also, the inhibition at 12 µM is 88.1% in the experiment with A549 [5], 91.2% with NCI-H1650 [7] and 96.7% in the experiment with NCI-H1975 [12]. Moreover, in [8], the inhibition entry is “Active”. Further, in experiment [10], the inhibition is 59.9%.
For `O=C(c1ccc(OCCCBr)cc1)C(Cl)Cl`, the inhibition at 6 µM with NCI-H1975 [1] stood at 99.6%; in the experiment with A549 [3], 80.1%; with NCI-H1650 [11] it was 65.4%. Also, the figures for the inhibition at 2 µM in the experiment with A549 [2], in the experiment on NCI-H1650 [4] and in the experiment with NCI-H1975 [6] were 21.7%, 27.9% and 69.8%, respectively. In addition, the inhibition at 12 µM is 98.4% in the experiment with A549 [5], 92.5% in the experiment on NCI-H1650 [7] and 99.9% with NCI-H1975 [12]. Moreover, the inhibition result in experiment [8] is “Active”. The inhibition in experiment [10] was 19.7 to 67.9%.
`O=C(c1ccc(OCCCCCBr)c([N+](=O)[O-])c1)C(Cl)Cl`: the inhibition at 6 µM with NCI-H1975 [1] was 49.8%; in the experiment on A549 [3], 29.4%; in the experiment on NCI-H1650 [11], 39.7%. Moreover, the inhibition at 2 µM with A549 [2] and in the experiment on NCI-H1975 [6] was 6.9% each time. For the same compound, the inhibition entry in the experiment on NCI-H1650 [4] was “inactive”. In addition, the inhibition at 12 µM was 69.7% with A549 [5], 78.6% in the experiment on NCI-H1650 [7] and 99.7% with NCI-H1975 [12]. For the same compound, the inhibition result (in the experiment filed under Sus scrofa; in experiment [10]) was “Active” each time.
As for `Cc1ccccc1NC(=O)C(Cl)Cl`, the inhibition at 6 µM was 19.5% in the experiment on NCI-H1975 [1], 9.9% with A549 [3] and 14.5% with NCI-H1650 [11]. In addition, the inhibition entry (with A549 [2]; in the experiment with NCI-H1650 [4]; in the experiment on NCI-H1975 [6]; in the experiment filed under Sus scrofa; in experiment [10]) was “inactive” in each case. For the same compound, the inhibition at 12 µM was 13.2% in the experiment on A549 [5], 15.4% in the experiment with NCI-H1650 [7] and 22.9% in the experiment with NCI-H1975 [12].
